Experimental data from patent US8222187B2, “Method for improving the phytoremediation of polluted sites by providing plants with exogenous carbohydrates” (Universite de Rennes 1, priority 2003, dated 2012).

Key:
Arabidopsis thaliana [1] = experiment: Photosynthetic pigment levels (chlorophylls and carotenoids) after 15 days of culture; assay type: in vivo
Experimental: (§1) Arabidopsis thaliana seeds (Wassilewskija ecotype) were sterilised at the surface according to the standard protocol and then rinsed with absolute ethanol and dried for one night.
(§2) These seeds were cultivated in Petri dishes on a culture medium of Murashige and Skoog (adjusted to a pH of 5.7) containing agar (0.8%). The Petri dishes were stored for 48 h at 4° C. then transferred to 22° C. under a photoperiod of 16 hours per day at 4500 lux. The sucrose and glucose were added to the culture medium, while no sugar was added for the controls.
(§3) A growth parameter (length of the primary roots) and the pigment levels (chlorophylls and carotenoids) were measured after 15 days of culture. The atrazine levels in the plants were also measured after one month of culture.
The photosynthetic pigments (chlorophylls and carotenoids) were extracted by grinding the aerial portions of the plants in 80% acetone and by measuring the absorbance of the extracts corresponding to 663 nm, 646 nm and 470 nm. The levels of these pigments were expressed in μg/mL and determined according to the method of Lichtenthaler et al. (1983 Biochem. Soc. Trans. 11, 591-592).

superoxide ion = experiment: Superoxide ion production of the plants; assay type: in vivo, Arabidopsis thaliana; settings: 10 mM sucrose
Experimental: In addition, the superoxide ion production of the plants was tested according to the method of Fryer et al. (2002 Imaging of photo-oxidative stress responses in leaves—J. Exp. Bot. 53: 1249-1254).

Arabidopsis thaliana [2] = experiment: Length of the primary roots of Arabidopsis thaliana after 15 days of culture on agar medium; assay type: in vivo
Experimental: as §1, §2, §3

[3] = test system: D1 protein of photosystem II; experiment: D1 protein levels by Dot Blot and Western Blot; assay type: in vivo, Arabidopsis thaliana
Experimental: In another experiment series, Arabidopsis thaliana plants were cultivated in the culture medium described above in the absence of sucrose and in the presence of 10 mM and 80 mM of sucrose, and in the absence of atrazine and in the presence of 0.25 μM and 1 μM of atrazine. To measure the levels of D1 protein (31-kD monomer and 21.5-kD by-products), the membrane proteins of the plants were isolated according to the method of Pilgrim et al. (1998 Plant. J. 13 2-77-186). The levels of the total concentration of the target protein, D1 protein of photosystem II, were measured by Dot Blot analysis. Then, the different forms were analysed by gel electrophoresis separation under denaturing and Western Blot conditions.

photosystem II = target: T1, photosystem II (Arabidopsis thaliana, UniProt P83755); experiment: Activity of photosystem II monitored by chlorophyll fluorescence; assay type: in vivo; settings: increasing sucrose (10 mM, 80 mM), atrazine 0.25 μM and 1 μM (lethal or sublethal doses without sucrose)
T1 construct: from tissue; host or cells: whole Arabidopsis thaliana plants grown on culture medium
Experimental: In another experiment series, Arabidopsis thaliana plants were cultivated in the culture medium described above in the absence of sucrose and in the presence of 10 mM and 80 mM of sucrose, and in the absence of atrazine and in the presence of 0.25 μM and 1 μM of atrazine. […] The activity of photosystem II is monitored by measuring the fluorescence of the chlorophylls.

Arabidopsis thaliana [4] = experiment: Arabidopsis culture on humus contaminated with atrazine; assay type: in vivo; settings: humus with 10 μM atrazine; sucrose applied to the surface as a 3% solution
Experimental: Atrazine concentrations were also measured in the plants and the culture medium using conventional methods of extraction with solvents and high-performance liquid chromatography analysis with UV detection. The atrazine was extracted in a methanol and water mixture (4:1, v/v). After centrifugation, the supernatants were filtered on filters of 0.45 μm and the organic solvents were evaporated at 40° C. SPE cartridges were activated by washing with 5 mL or methanol then 5 mL of water. Each sample was applied to a column and the columns were then washed. The atrazine was eluted with 2 mL of dichloromethane. The organic solvents were then evaporated and the dry residues were dissolved in 500 μL of a methanol and water mixture (1:1). The samples were then analysed by HPLC with UV detection. In additional experiments, Arabidopsis thaliana was also cultivated on a humus contaminated at a concentration of 10 μM of atrazine in the absence of sucrose and in the presence of sucrose applied to the surface in the form of a 3% solution. The cultures obtained are shown in FIG. 11, in which the left-hand container corresponds to the culture in the presence of sucrose and the right-hand container corresponds to the culture in the absence of sucrose.

[5] = absence of sugars in the culture medium

SMILES | concentration at which chlorophylls and carotenoids disappear completely (Arabidopsis thaliana [1]; [5]) | effect on levels of chlorophylls and carotenoids in the leaves (Arabidopsis thaliana [1]; in the presence of 80 mM sucrose or 80 mM glucose) | effect on superoxide ion production (superoxide ion; increasing atrazine levels) | effect on the length of the primary roots (Arabidopsis thaliana [2]; 1 to 10 μM atrazine, in the presence of 80 mM sucrose or 80 mM glucose) | IC50 (Arabidopsis thaliana [2]; Arabidopsis thaliana, absence of sugars in the culture medium, hyperbolic regression curve (R^2=0.93), read-out: I50 for the atrazine inhibition of primary root length) | concentration at which inhibition of root development is complete, with discolouring and death of the plants (Arabidopsis thaliana [2]; [5]) | effect on root growth (Arabidopsis thaliana [2]; atrazine concentrations higher than 10 μM, in the presence of 80 mM sucrose or 80 mM glucose) | effect on D1 protein (Dot Blot, all D1 proteins) ([3]; 1 μM atrazine, plants not cultivated in the presence of sucrose) | effect on activity of photosystem II (photosystem II) | effect of sucrose on production of active oxygen species such as the superoxide ion (superoxide ion; in the presence of atrazine) | increase in root growth at higher atrazine concentrations, sucrose compared with glucose (Arabidopsis thaliana [2]; 80 mM sugar) | effect on D1 protein and by-products (Western Blot) ([3]; 10 mM sucrose, 1 μM atrazine) | effect on D1 protein and by-products (Western Blot) ([3]; 80 mM sucrose, 1 μM atrazine) | effect on monomer of the D1 protein (Western Blot) ([3]; 80 mM sucrose, atrazine concentrations at which the monomer disappears without sucrose) | effect on D1 protein (Western Blot) ([3]; high sucrose concentrations, absence of atrazine) | effect on D1 protein and by-products (Western Blot) ([3]; sucrose in the culture medium, 0.25 μM atrazine) | seedlings on contaminated humus with sucrose compared with no sucrose (Arabidopsis thaliana [4])
CCNc1nc(Cl)nc(NC(C)C)n1 [atrazine, 2-chloro-4-ethylamino-6-isopropylamine-1,3,5-triazine] | 500 nM | the production of these pigments is not suppressed | appears to increase in the presence of atrazine | inhibiting but non-lethal effect | 120 nM | 500 nM | paradoxically enable the root growth to improve | causes the disappearance of the D1 protein | – | – | – | – | – | – | – | – | –
OC[C@H]1O[C@@](CO)(O[C@H]2O[C@H](CO)[C@@H](O)[C@H](O)[C@H]2O)[C@@H](O)[C@@H]1O [sucrose] | – | – | – | – | – | – | – | – | contribute to maintaining the activity of photosystem II | does not prevent the production | greater in the presence of sucrose than in the presence of glucose | The same effect was observed | causes a decrease in the D1 protein | maintain a sufficient amount of monomer of the D1 protein | decrease in D1 protein production | greater accumulation of the D1 protein and its by-products | more numerous and larger
